The values that follow come from patent publication US20120244230A1, “POLYVALENT POLYNUCLEOTIDE NANOPARTICLE CONJUGATES AS DELIVERY VEHICLES FOR A CHEMOTHERAPEUTIC AGENT” (priority 2009, published 2012).

The nature of series [1]: Cyclic voltammetry, reduction potential of the Pt(IV) complex. The series is classed as physicochemical. Particulars: Ag/AgCl reference, 25° C. On the procedure:
The conjugate was designed to release a cytotoxic dose of cisplatin upon intracellular reduction. An ideal Pt(IV) complex should be sufficiently stable to travel through the blood stream until it reaches a tumor cell without decomposition. Once inside the cell, however, it should have an appropriate reduction potential such that it will be reduced and release its cytotoxic payload. Electrochemical measurements were made at 25° C. on a EG&G PAR Model 263 Potentiostat/Galvanostat with electrochemical analysis software 270 and a three electrode set-up comprising a glassy carbon working electrode, platinum wire auxiliary electrode and a Ag/AgCl reference electrode. The electrochemical data were uncorrected for junction potentials. KCl was used as a supporting electrolyte.

The subject of the next series is A549 cells. On the procedure: (§1) Human cervical cancer HeLa, human osteosarcoma U2OS, human prostate PC3 cell lines were procured from the ATCC. A549 lung carcinoma cells were obtained from Prof. David E. Root, Whitehead Institute for Biomedical Research. HeLa, U2OS, and A549 Cells were grown at 37° C. in 5% CO2 in DMEM medium supplemented with 10% fetal bovine serum and 1% penicillin/streptomycin. PC3 cells were grown at 37° C. in 5% CO2 in RPMI supplemented with 10% fetal bovine serum and 1% penicillin/streptomycin. Cells were passed every 3 to 4 days and restarted from frozen stocks upon reaching pass number 20.
(§2) In order to investigate the efficacy of Pt-DNA-Au NPs, their ability to kill cancer cells of various origin was measured. […] Cells were seeded on a 96 well plate in 100 μL media and incubated for 24 hours. The cells were then treated with Pt-DNA-Au NP, 1, or cisplatin, separately at varying concentrations and incubated for 72 hours at 37° C. Medium was removed, cells were washed with PBS and then incubated with cell culture medium containing 20% 3-(4,5-dimethylthiazol-2-yl)-2,5-diphenyltetrazolium bromide (MTT). […] Cells were further incubated overnight and the absorbance was measured at 620 nm using a BioTek Synergy HT multi-detection microplate plate reader. […]

A further series deals with PC3 cells. Nature of the series: MTT cytotoxicity assay, PC3. On the procedure:
as §1, §2

The subject of the next series is U2OS cells. Kind of series: MTT cytotoxicity assay, U2OS. Particulars: 72 hour treatment. The series is classed as cell-based, human. On the procedure:
as §1, §2
Background: Tetrazolium assays rely on reduction of a dye to a coloured formazan, in cell work by metabolically active cells.

Consider `[NH2][Pt]([NH2])([OH])([Cl])([Cl])[O]C(=O)CCC(=O)O` [Compound 1, c,c,t-[Pt(NH3)2Cl2(OH)(O2CCH2CH2CO2H)]], for which the reduction potential was −0.42 V in series [1] (pH 6.0, phosphate buffer-0.1 M KCl) and −0.49 V in series [1] (pH 7.4, phosphate buffer-0.1 M KCl, extrapolated to 0.0 mV s-1 scan rate). For the same compound, the “cytotoxicity (in words)” value in the series with A549 cells and with PC3 cells was “did not show any significant killing” in each case.
For orientation: IC50 means the point on the concentration scale where inhibition reaches its midpoint. Take `N.N.[Cl][Pt][Cl]` [cisplatin, cis-diamminedichloroplatinum(II), reference compound]: the IC50 stood at 4.6 µM in the series with PC3 cells (PC3 cells, 72 hour treatment, MTT) and 5.1 µM with U2OS cells.
